# According to patent publication EP0445920A2, “Use of ethoxy phenoxy acetic acid derivatives against diabetes” (IMPERIAL CHEMICAL INDUSTRIES PLC, priority 1990, dated 1991):
# System: oral glucose tolerance in rats
# Experiment: Oral glucose tolerance test in fasted rats (blood glucose by glucose oxidase method)
# Type: in vivo, Male, Alderley Park, Wistar rats
# Details: rats fasted 24 hours, Glibenclamide 5 mg/kg p.o. at -2.0 h, Compound A 0.1 mg/kg p.o. at -0.5 h, M ± SEM, eight rats/group; for Glucose levels, time relative to oral glucose (minutes) 0: 0 min (before oral glucose load 1g/kg); for Glucose levels, time relative to oral glucose (minutes) 20: 20 min after oral glucose load 1g/kg; for Glucose levels, time relative to oral glucose (minutes) 60: 60 min after oral glucose load 1g/kg; for Glucose levels, time relative to oral glucose (minutes) 120: 120 min after oral glucose load 1g/kg
# Method: Effects of (S)-4-[2-(2-hydroxy-3-phenoxypropylamino)ethoxy]-N-(2-methoxyethyl)phenoxyacetamide on glibenclamide induced improvements in oral glucose tolerance in rats Glibenclamide is a sulphonylurea commonly used for the treatment of non-insulin dependent diabetes. The effects of (S)-4-[2-(2-hydroxy-3-phenoxypropylamino)ethoxy]-N-(2-methoxyethyl) phenoxyacetamide (compound A) were assessed on glibenclamide induced improvements in oral glucose tolerance. Male, Alderley Park, Wistar rats (weight range 125-150 g) were caged in groups of four in a room with normal lighting, at a temperature of 22°C. The animals were allowed free access to water and chow during an acclimatisation period of five days. At the end of this period the rats were fasted for 24 hours. After fasting a group of 8 rats was anaesthetised and a cardiac blood sample taken. The remaining rats were dosed orally according to the schedule below: [table] Glibenclamide and Compound A were dissolved in an aqueous 0.025% solution of polysorbate. The dosage volume was 0.5 ml/100 g body weight. Thirty minutes after dosing according to the schedule above a further eight rats from each group were bled. The remaining rats were then given an oral glucose load (1g/kg) dosed as a 20% solution of D-glucose (0.5 ml/100 g). Groups of eight rats for each treatment were then anaesthetised and bled 20, 60 and 120 minutes after the glucose load. Glucose levels were assayed using a glucose oxidase method on a KDK glucose analyser (Clandon).
SMILES,"Glucose levels, time relative to oral glucose (minutes) 0 [mmol]","Glucose levels, time relative to oral glucose (minutes) 20 [mmol]","Glucose levels, time relative to oral glucose (minutes) 60 [mmol]","Glucose levels, time relative to oral glucose (minutes) 120 [mmol]"
"COCCNC(=O)COc1ccc(OCCNC[C@H](O)COc2ccccc2)cc1 [Compound A, (S)-4-[2-(2-hydroxy-3-phenoxypropylamino)ethoxy]-N-(2-methoxyethyl) phenoxyacetamide]",2.77 ± 0.10,6.16 ± 0.23,5.37 ± 0.28,4.99 ± 0.20
COc1ccc(Cl)cc1C(=O)NCCc1ccc(S(=O)(=O)NC(=O)NC2CCCCC2)cc1 [Glibenclamide],3.16 ± 0.13,7.77 ± 0.45,4.4 ± 0.38,3.67 ± 0.27
